Reference: patent US11008612B2, “Methods and apparatus for single molecule sequencing using energy transfer detection” (Life Technologies Corporation, priority 2009, dated 2021)

Experiments:
[1] = solubility of core nanoparticles in solvents
From the text: The solubility of the aliquoted samples was observed. […] Six of the aliquoted samples were centrifuged and the resulting clear, colorless supernatants were discarded.

[2] = tested on: duplex Alexa fluor 546 dye-labeled-DNA template and AF647-C6-dG6P; assay: Stopped-flow measurements of tpol (nucleotide incorporation kinetics); assay type: biochemical; conditions: 330 nM polymerase, 100 nM template/primer duplex, 7 μM AF647-C6-dG6P, 2 mM MnCl2; tpol = 1/kpol
Protocol: The kinetics of nucleotide incorporation by B103 (exo-) (SEQ ID NO:5) and an H370R mutant (SEQ ID NO:3) DNA polymerases were measured in an Applied Photophysics SX20 stopped-flow spectrometer by monitoring changes in fluorescence from a duplex Alexa fluor 546 dye-labeled-DNA template following the mixing of the enzyme-DNA complex with dye-labeled nucleotides (AF647-C6-dG6P) in the reaction buffer containing 50 mM Tris-HCl, pH 7.5, 50 mM NaCl, 4 mM DTT, 0.2% BSA, and 2 mM MnCl2. The reactions included 330 nM recombinant DNA polymerase, 100 nM template/primer duplex, and 7 μM labeled nucleotides.
The averaged (5 traces) stopped-flow fluorescence traces (>1.5 ms) were fitted with a double exponential equation (1) to extrapolate the rates of the nucleotide binding and product release, Fluorescence=A1*e^−k^1^*t+A2*e^−k^pol^*t+C (equation 1) where A1 and A2 represent corresponding fluorescence amplitudes, C is an offset constant, and k1 and kpol are the observed rate constants for the fast and slow phases of the fluorescence transition, respectively. The dye-labeled nucleotides comprise terminal-phosphate-labeled nucleotides having an alkyl linker with a functional amine group attached to the dye. The stopped-flow techniques for measuring tpol (1/kpol) followed the techniques described by M P Roettger (2008 Biochemistry 47:9718-9727; M. Bakhtina 2009 Biochemistry 48:3197-320). 2) B103 Polymerase: Stopped-Flow Measurements of t−1

[3] = tested on: [enzyme⋅DNA⋅labeled nucleotide] ternary complex (AF647-C6-dG6P); assay: Stopped-flow measurements of t−1 (nucleotide dissociation from ternary complex); assay type: binding; conditions: ternary complex mixed with 50 μM cognate non-labeled dNTP, 2 mM MnCl2; t−1 = 1/k−1
Protocol: The rate of the nucleotide dissociation (k−1) from the ternary complex of [enzyme⋅DNA⋅nucleotide] was measured in an Applied Photophysics SX20 stopped-flow spectrometer by monitoring changes […] a duplex Alexa fluor 546 dye-labeled-DNA template following the mixing of the [enzyme⋅DNA⋅labeled nucleotide] ternary complex with 50 μM cognate non-labeled deoxynucleoside triphosphate in a buffer containing 50 mM Tris-HCl (pH 7.5), 50 mM NaCl, 4 mM DTT, 0.2% BSA, and 2 mM MnCl2.
The ternary complexes were prepared using: 330 nM polymerase, 100 nM template/primer duplex, and 7 μM terminal phosphate-labeled nucleotides (AF647-C6-dG6P).
The averaged stopped-flow fluorescence traces (>1.5 msec) were fitted with a single exponential equation (2) to extrapolate the rate of the nucleotide dissociation (k−1) from the [enzyme⋅DNA⋅nucleotide] ternary complex. Fluorescence=A1*e^−k^−1^*t+C (equation 2) where A1 represents the corresponding fluorescence amplitude, C is an offset constant, and k−1 and the observed rate constants for the fluorescence transition. The stopped-flow techniques for measuring t−1 (1/k−1) followed the techniques described by M. Bakhtina (2009 Biochemistry 48:3197-3208).

[4] = tested on: template; assay: template extension activity (DNA extension assay); assay type: biochemical; conditions: stock unconjugated polymerase
Protocol: A 150 nM master mix solution of a labeled hairpin oligonucleotide 221 was prepared by diluting the appropriate quantity of a 50 μM stock solution with extension buffer (50 mM TRIS, pH 8, 50 mM NaCl, 10 mM MgCl2). 450 μl of a master mix was prepared for each sample being tested.
The conjugate being tested was diluted in 450 μl of the master mix such that the final concentration of the conjugate is in the range of 10 nM to 50 nM. The positive control samples of free PKAΦ29 were similarly diluted. The sample solution was deposited in four microtiter plate wells, at 100 μl/well.
The microtiter plate was placed in a plate reader (Molecular Devices, SpectraMax M5) and set up to monitor the fluorescence as function of time (excitation 490 nm, emission 535 nm, cutoff filter 515 nm). Just prior to starting the plate reader, 2 μl of 1 mM dATP was added to each of two microtiter wells to start the extension reaction. The other two microtiter wells with sample represent no extension controls. The plate was read for an hour or until the samples reached saturation. […]

t−1 [3]	Molecule	solubility in solvents [1]	tpol [2]	DNA extension assay [4] [base/sec/enzyme]
	CCOC(=O)CCCCCP(=O)(O)O [6-ethoxy-6-oxohexylphosphonic acid]	not soluble in hexane		
16	B103 (exo-): B103 (exo-) DNA polymerase (SEQ ID NO:5)		14	
20	K509Y: B103 polymerase with amino acid substitution K509Y		10	
43	H370R: H370R mutant B103 DNA polymerase (SEQ ID NO:3)		17	
	stock HP1-B104-H370R (exo-) polymerase: stock His-tagged HP1-B103 H370R exo- polymerase (SEQ ID NO:3)			0.29
